Data on 27 compounds can be found in ChEMBL document CHEMBL4483862, “Open-source discovery of chemical leads for next-generation chemoprotective antimalarials” (2018).

The test system of this test is Plasmodium berghei. The experiment in a line: Luciferase/luciferin-expressing antifolate-resistant parasites were used to infect a culture of HepG2 cells that were pre-incubated with compounds. Infected hepatocytes emit light due to the luciferase reaction. Assay results are presented as the percent inhibition of light emission compared to control. […]. Type of test: functional. To be noted: sporozoite; for IC90: read-out: LUCIFERASE INFECTION ASSAY - IC90.

The mark [1] stands for this setting: read-out: LUCIFERASE INFECTION ASSAY - IC50.

On to `Cc1cc(C(=O)CSc2nnc3n2CCCCC3)c(C)n1-c1ccccc1`, for which the concentration for an effect of 90% (IC90) is greater than 10 µM. In addition, the IC50 (FFLUC_HILL_SLOPE 0.849, FFLUC_R_SQUARED 0.0339, PBLUC_HILL_SLOPE 12.7, PBLUC_R_SQUARED 0.127, read-out: LUCIFERASE INFECTION ASSAY - IC50) came out at 9.31 µM.

Consider `NS(=O)(=O)c1ccc(CCNc2nc(-c3ccc(Cl)cc3)nc3sc4c(c23)CCC4)cc1`, for which the IC90 is greater than 10 µM. For the setting “FFLUC_HILL_SLOPE 5.22, FFLUC_R_SQUARED 0.196, PBLUC_HILL_SLOPE 2.11, PBLUC_R_SQUARED 0.629, read-out: LUCIFERASE INFECTION ASSAY - IC50”, the concentration for half-maximal inhibition (IC50) stood at 7.12 µM. Take `Cc1cc(C)cc(NC(=S)NCCCCN2CCN(c3cccc(Cl)c3)CC2)c1`: the 90% effect concentration (IC90) is greater than 7.66 µM. The IC50 (PBLUC_HILL_SLOPE 3.55, PBLUC_R_SQUARED 0.0766, read-out: LUCIFERASE INFECTION ASSAY - IC50) worked out at 7.54 µM. For `O=C(Nc1ccc(OC(F)(F)F)cc1)c1c(-c2ccccc2)nnc2ccccc12`, the 90% effect concentration (IC90) was greater than 8.06 µM. Also, for the setting “FFLUC_HILL_SLOPE 2.82, FFLUC_R_SQUARED 0.654, HEPG2TOX_HILL_SLOPE 0.161, HEPG2TOX_R_SQUARED 0.349, PBLUC_HILL_SLOPE 0.343, PBLUC_R_SQUARED 0.11, read-out: LUCIFERASE INFECTION ASSAY - IC50”, the IC50 was greater than 8.06 µM. With `COc1ccc(S(=O)(=O)N2CCc3ccccc32)cc1C(=O)NOCc1ccccc1`, the IC90 was greater than 10 µM. Also, the 50% inhibitory concentration (IC50) under setting [1] was greater than 10 µM.

In the case of `Cc1ccc(NC(=O)C(OC(=O)c2c(C)noc2C)c2ccccc2)cc1Cl` (stereo not drawn), the IC90 was greater than 10 µM. For the same compound, the IC50 under setting [1] is greater than 10 µM. For `COc1ccc(CCNC(=O)c2c(S)n(-c3ccc(C)cc3)c3cccc[n+]23)cc1`, the concentration for an effect of 90% (IC90) amounted to 9.33 µM. Moreover, under “HEPG2TOX_HILL_SLOPE 12.1, HEPG2TOX_R_SQUARED 0.69, PBLUC_HILL_SLOPE 9.57, PBLUC_R_SQUARED 0.712, read-out: LUCIFERASE INFECTION ASSAY - IC50”, the half-inhibitory concentration (IC50) was determined as 7.42 µM. Consider `CCCCn1c(SCc2cc(=O)oc3cc(C)c(C(C)C)cc23)nc2cc(S(N)(=O)=O)ccc21`, for which the IC90 is greater than 10 µM. In addition, under setting [1], the IC50 was greater than 10 µM. With `CC(=O)Nc1cccc(-c2cnc3ccc(-c4ccc(S(C)(=O)=O)cc4)nn23)c1`, the IC90 came out at 9.62 µM. For the same compound, the IC50 (HEPG2TOX_HILL_SLOPE 0.982, HEPG2TOX_R_SQUARED 0.906, PBLUC_HILL_SLOPE 3.7, PBLUC_R_SQUARED 0.22, read-out: LUCIFERASE INFECTION ASSAY - IC50) came out at 5.31 µM. Regarding `NC(CCc1ccccc1)c1csc(NC(=O)Nc2cccc3ccccc23)n1` (stereo not drawn), the IC90 is greater than 8.2 µM. The IC50 under setting [1] is 5.11 µM.

Take `Cn1c(NCC2CCCO2)nc2cnc(-c3cccc(Oc4ccccc4)c3)cc21` (stereo not drawn): the concentration for an effect of 90% (IC90) was greater than 10 µM. In addition, under setting [1], the IC50 was greater than 10 µM. For the compound `Cc1ccc2sc(N(Cc3ccccc3)C(=O)CN3CCC(C(N)=O)CC3)nc2c1C`, the IC90 came to 4.19 µM. Further, the concentration for half-maximal inhibition (IC50) (PBLUC_HILL_SLOPE 23.7, PBLUC_R_SQUARED 0.191, read-out: LUCIFERASE INFECTION ASSAY - IC50) amounted to 3.82 µM. As to `O=C1CCCC2=C1C(c1ccccc1)C=C1c3cc4c(cc3CCN12)OCCCO4` (stereo not drawn), the IC90 is greater than 8.26 µM. Further, the IC50 under setting [1] is greater than 8.26 µM. For the compound `O=C(Nc1cccc(C(F)(F)F)c1)n1nccc1-c1cc(-c2ccccc2)no1`, the IC90 turned out to be 3.32 µM. Under “HEPG2TOX_HILL_SLOPE 0.0838, HEPG2TOX_R_SQUARED 0.0659, PBLUC_HILL_SLOPE 13.2, PBLUC_R_SQUARED 0.221, read-out: LUCIFERASE INFECTION ASSAY - IC50”, the IC50 is 2.81 µM. Turning to `COc1ccc(CSc2nnc(CSc3cccs3)n2C)cc1`, the IC90 was greater than 9.08 µM. Further, under setting [1], the concentration for half-maximal inhibition (IC50) is greater than 9.08 µM. For `C/C(N)=C(/C#N)C(=O)COC(=O)c1cc(-c2cccc3ccccc23)nc2ccccc12`, the 90% effect concentration (IC90) is greater than 10 µM. Besides, the IC50 under setting [1] is greater than 10 µM. `CCOC(=O)c1sc(N)c(C#N)c1COC(=O)c1c(CC)noc1C`: the concentration for an effect of 90% (IC90) came out at 0.249 µM. Also, the IC50 under setting [1] stood at 0.244 µM. For `CCc1cc(=O)n2ncc(-c3ccc(Cl)cc3)c2[nH]1`, the IC90 worked out at 3.53 µM. For the setting “HEPG2TOX_HILL_SLOPE 2.33, HEPG2TOX_R_SQUARED 0.563, PBLUC_HILL_SLOPE 7.25, PBLUC_R_SQUARED 0.422, read-out: LUCIFERASE INFECTION ASSAY - IC50”, the 50% inhibitory concentration (IC50) was determined as 2.61 µM. As for `O=C(/C=C/c1cccc(NC(=O)c2ccccc2Cl)c1)c1ccc2c(c1)-c1ccccc1C2`, the IC90 is greater than 10 µM. Under setting [1], the IC50 is greater than 10 µM. In the case of `C=CCn1c(COc2ccccc2F)nnc1Sc1cc(C)nc2ncnn12`, the IC90 is greater than 10 µM. Besides, under setting [1], the IC50 is greater than 10 µM.

In the case of `COC(=O)c1cccc(OC(=O)/C=C/c2ccc(-c3ccccc3)s2)c1`, the IC90 was greater than 10 µM. Also, under setting [1], the IC50 was greater than 10 µM.

In the case of `CCCCCc1ccc(-c2nnc(Sc3ccc(C(F)(F)F)cc3[N+](=O)[O-])[nH]2)cc1`, the concentration for an effect of 90% (IC90) was greater than 7.56 µM. The IC50 (PBLUC_HILL_SLOPE 9.1, PBLUC_R_SQUARED 0.598, read-out: LUCIFERASE INFECTION ASSAY - IC50) is 6.15 µM. Regarding `Cc1cc(/C=C/C(=O)Nc2nccs2)c(C)n1-c1ccccc1`, the concentration for an effect of 90% (IC90) is 3.27 µM. Where the note is “PBLUC_HILL_SLOPE 1.4, PBLUC_R_SQUARED 0.69, read-out: LUCIFERASE INFECTION ASSAY - IC50”, the concentration for half-maximal inhibition (IC50) worked out at 0.681 µM. Consider `c1ccc(CNc2nc3cnc(-c4ccc5ccccc5c4)cc3[nH]2)cc1`, for which the concentration for an effect of 90% (IC90) was greater than 10 µM. Further, the half-inhibitory concentration (IC50) (HEPG2TOX_HILL_SLOPE 2.88, HEPG2TOX_R_SQUARED 0.737, PBLUC_HILL_SLOPE 2.3, PBLUC_R_SQUARED 0.668, read-out: LUCIFERASE INFECTION ASSAY - IC50) is 4.89 µM. `CN(C)Cc1ccc(C(=O)Nc2nc3ccccc3[nH]2)cc1`: the IC90 worked out at 0.483 µM. Regarding `CCCCCCCCCCCCCCCCCC1=[N+](c2ccccc2)C(Nc2ccccc2)CN1c1ccccc1` (stereo not drawn), the IC90 was greater than 5.61 µM. Where the note is “HEPG2TOX_HILL_SLOPE 13, HEPG2TOX_R_SQUARED 0.218, read-out: LUCIFERASE INFECTION ASSAY - IC50”, the half-inhibitory concentration (IC50) was greater than 5.61 µM.

For the compound `CC(C)c1ccc(N/N=C/c2cc(C#Cc3ccccc3)cs2)cc1`, the 90% effect concentration (IC90) is greater than 9.58 µM. Also, under setting [1], the IC50 was greater than 9.58 µM.
